The values below are quoted from earlier work in the CATMoS acute toxicity set (Mansouri et al. 2021).

Several values for one entry are separate records, joined by “and”; a condition that tells them apart may be missing. Identical values can stand only once.

A short description of the data set: rat acute oral toxicity. As to conditions: in vivo.
As usually defined, the LD50 is the dose at which mortality reaches 50%. Turning to `COP(=O)(SC)c1ccccc1` (centres undefined), the LD50 is 55.3 mg/kg.
For `O=COCCc1ccccc1`, the LD50 was 3220 mg/kg.
Take `COP(=S)(OC)SCC(=O)O`: the LD50 is 2500 mg/kg.
As to `Cc1ccc2ccccc2n1`, the LD50 is 1230 mg/kg.
Consider `CC(=O)C(NC(=O)C(C)C(O)C(C)NC(=O)C(NC(=O)c1nc(C(CC(N)=O)NCC(N)C(N)=O)nc(N)c1C)C(OC1OC(CO)C(O)C(O)C1(C)OC1OC(CO)C(O)C(O)(C(N)=O)C1O)c1cnc[nH]1)C(=O)NCCC1=NC(c2nc(C(N)=O)cs2)CS1` (centres undefined), for which the LD50 was 649 mg/kg.
Turning to `NCCOC(=O)c1ccccc1`, the LD50 is 9270 mg/kg.
In the case of `O=C1OC(=O)c2ccc3c4c(ccc1c24)C(=O)OC3=O`, the LD50 is 7400 mg/kg.
Take `CCN1CC2CN(C)CC(C1)C2OC(=O)c1ccc(Cl)cc1` (centres undefined): the LD50 was 200 mg/kg.
Take `CC(C)(C)NCC(O)CSc1nc(-c2ccc(C(N)=O)s2)cs1` (centres undefined): the LD50 was 86 mg/kg.
`NCCCCC(CN)CCCN` (centres undefined): the LD50 is 760 mg/kg.
`CCCCOC(C[n+]1ccccc1)c1ccccc1` (centres undefined): the LD50 was 250 mg/kg.
In the case of `COC(=O)Nc1nc2ccccc2[nH]1`, the LD50 was 6400 mg/kg and 12500 mg/kg and 7500 mg/kg.
Regarding `O=CC(Br)=Cc1ccccc1`, the LD50 was 1450 mg/kg.
For the molecule `CN(Sc1ccc([N+](=O)[O-])cc1)C(=O)Oc1cccc2c1OC(C)(C)C2`, the LD50 is 25 mg/kg.
Regarding `O=C1C2C3C=C(C(O)(c4ccccc4)c4ccccn4)C(C3=C(c3ccccc3)c3ccccn3)C2C(=O)N1Cc1ccccn1` (centres undefined), the LD50 is 5.2 mg/kg.
In the case of `O=C(OCCOC(=O)c1ccccc1)c1ccccc1`, the LD50 was 5340 mg/kg.
With `CCN(CC)CCOCc1cc(Br)cc(Br)c1OC`, the LD50 is 500 mg/kg.
Turning to `COP(=O)(OC)OC(=C(Cl)Br)c1ccc(Cl)cc1Cl`, the LD50 was 107 mg/kg.
`O=C(O)C(F)(F)C(F)F`: the LD50 was 8570 mg/kg.
Regarding `CCCCCN(C)N=O`, the LD50 was 120 mg/kg.
For the molecule `CCOC(=O)NNc1nncc2ccccc12`, the LD50 was 318 mg/kg and 598 mg/kg.
Take `CN(C)CCN(Cc1ccc(Cl)cc1)c1ccccn1`: the median lethal dose (LD50) is 920 mg/kg.
Consider `N=C(N)SCc1ccccc1`, for which the LD50 is 27 mg/kg.
`O=C1CC2(CCCC2)CC(=O)N1CCCCN1CCN(c2nsc3ccccc23)CC1`: the median lethal dose (LD50) was 1850 mg/kg.
Take `Nc1ccc2nc(C(F)(F)F)[nH]c2c1`: the LD50 was 67 mg/kg.
As to `CC(Br)C=CCl` (centres undefined), the LD50 is 74 mg/kg.
Take `CCC1NC(=O)c2cc(N)ccc2O1` (centres undefined): the LD50 is 1890 mg/kg.
For `CCS(=O)CC`, the LD50 was 5650 mg/kg.
Consider `CC1(C)S[C@@H]2[C@H](NC(=O)C(C(=O)Oc3ccccc3)c3ccccc3)C(=O)N2[C@H]1C(=O)O` (some centres undefined), for which the LD50 was 10000 mg/kg.
Turning to `Cc1ncc(CSSCc2cnc(C)c(O)c2C)c(C)c1O`, the LD50 is 2150 mg/kg.
As for `CC(CN1c2ccccc2Sc2cccnc21)N(C)C` (centres undefined), the LD50 was 1220 mg/kg.
Turning to `OCCN(CCO)c1nc(N2CCCCC2)c2nc(N(CCO)CCO)nc(N3CCCCC3)c2n1`, the LD50 was 8400 mg/kg.
In the case of `COc1cccc2c1cc([N+](=O)[O-])c1c(C(=O)O)cc3c(c12)OCO3`, the LD50 was 184 mg/kg.
Regarding `CCCCCCCCOC(=O)Oc1ccc([N+](=O)[O-])cc1[N+](=O)[O-]`, the LD50 is 196 mg/kg.
Consider `Cc1ccc2sc(C)nc2c1`, for which the LD50 is 957 mg/kg.
As for `O=C1CCC(C(=O)NC2CC2c2ccccc2)N1` (centres undefined), the 50% lethal dose (LD50) was 96 mg/kg.
On to `c1ccc(C2(c3ccccc3)CC2C2=NCCN2)cc1` (centres undefined), for which the LD50 was 359 mg/kg.
As to `CC(=O)N(OCCN(C)C)C12CC3CC(CC(C3)C1)C2`, the LD50 was 630 mg/kg.
With `COC(=O)c1ccccc1O`, the LD50 is 1700 mg/kg.
`CC=CC(=O)OC(C=CC)OC(=O)C=CC` (centres undefined): the LD50 was 2590 mg/kg.
On to `O=C(NNCc1ccccc1)c1ccccn1`, for which the LD50 is 240 mg/kg.
As to `CC(C)(Oc1ccc(CCNC(=O)c2ccc(Cl)cc2)cc1)C(=O)O`, the LD50 was 1080 mg/kg.
For the molecule `FC(F)(F)c1nc2c(Cl)ccc(Cl)c2[nH]1`, the LD50 was 2.61 mg/kg.
For the molecule `OC(Cn1cncn1)(c1ccc(F)cc1)c1ccccc1F` (centres undefined), the median lethal dose (LD50) was 1140 mg/kg.
For the molecule `CC1(CCO)CCOCO1` (centres undefined), the LD50 is 8800 mg/kg.
Regarding `COC(=O)C(C)N(C(=O)c1ccco1)c1c(C)cccc1C` (centres undefined), the LD50 is 940 mg/kg.
As for `Cc1oc(=O)oc1COC(=O)[C@@H]1N2C(=O)[C@@H](NC(=O)[C@H](N)c3ccccc3)[C@H]2SC1(C)C`, the LD50 is 10000 mg/kg.
Consider `O=C1CCC(c2ccc(-n3ccnc3)cc2)=NN1`, for which the LD50 was 125 mg/kg.
For the molecule `C=C(C)CNc1ccc(C(C)C(=O)O)cc1` (centres undefined), the LD50 was 550 mg/kg.
Take `CCC(Br)(CC)C(=O)NC(N)=O`: the LD50 is 316 mg/kg.
As to `CCCCCCCCCCCCOC(C[n+]1ccccc1)c1ccc(C(C)C)cc1` (centres undefined), the LD50 was 250 mg/kg.
For the molecule `CNC(=O)Oc1ccccc1CCCSC`, the LD50 was 220 mg/kg.
Turning to `C=C(Cl)C(Cl)=C(Cl)Cl`, the LD50 was 421 mg/kg.
In the case of `C=C1C[C@]23C[C@@]1(O)CC[C@H]2[C@@]12C=C[C@H](O)[C@@](C)(C(=O)O1)[C@H]2[C@@H]3C(=O)O`, the LD50 was 6300 mg/kg.
On to `O=C1C(I)=CC(=C(c2cc(I)c(O)c(I)c2)c2ccccc2C(=O)O)C=C1I`, for which the LD50 is 2800 mg/kg.
In the case of `N#Cc1cc(Cl)cc2[nH]c(C(F)(F)F)nc12`, the LD50 was 4.79 mg/kg.
`NCCOC(=O)C=CC(=O)OCCN`: the LD50 was 4920 mg/kg.
Regarding `O=CC1CCC=CO1` (centres undefined), the LD50 is 4920 mg/kg.
In the case of `C=CC(=O)NCNC(=O)C=C`, the LD50 was 390 mg/kg.
